Test results taken from PubChem BioAssay (NCI).
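Growth conditions: 96-well plates. Treatment: test compound, 48 hours, 5 concentrations. Analysis: linear interpolation between bracketing concentrations; unreached endpoints set to highest concentration. At the GI50, growth is halved. Definition used: TGI = concentration required for complete inhibition of growth.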

Experiments:
Assay in all cases: NCI-60 cell line screen, 48 h
786-0 renal = test system: 786-0 renal
A498 renal = test system: A498 renal
A549 NSCLC = test system: A549 NSCLC
ACHN renal = test system: ACHN renal
BT-549 breast = test system: BT-549 breast
CAKI-1 renal = test system: CAKI-1 renal
CCRF-CEM leukemia = test system: CCRF-CEM leukemia
COLO 205 colon = test system: COLO 205 colon
DU-145 prostate = test system: DU-145 prostate
EKVX NSCLC = test system: EKVX NSCLC
HCC-2998 colon = test system: HCC-2998 colon
HCT-116 colon = test system: HCT-116 colon
HCT-15 colon = test system: HCT-15 colon
HL-60(TB) leukemia = test system: HL-60(TB) leukemia
HOP-62 NSCLC = test system: HOP-62 NSCLC
HOP-92 NSCLC = test system: HOP-92 NSCLC
HS 578T breast = test system: HS 578T breast
HT29 colon = test system: HT29 colon
IGROV1 ovarian = test system: IGROV1 ovarian
K-562 leukemia = test system: K-562 leukemia
KM12 colon = test system: KM12 colon
LOX IMVI melanoma = test system: LOX IMVI melanoma
M14 melanoma = test system: M14 melanoma
MALME-3M melanoma = test system: MALME-3M melanoma
MCF7 breast = test system: MCF7 breast
MDA-MB-231 breast = test system: MDA-MB-231 breast
MDA-MB-435 = test system: MDA-MB-435
MOLT-4 leukemia = test system: MOLT-4 leukemia
NCI-H226 lung = test system: NCI-H226 lung
NCI-H23 lung = test system: NCI-H23 lung
NCI-H460 lung = test system: NCI-H460 lung
NCI-H522 lung = test system: NCI-H522 lung
NCI/ADR-RES ovarian = test system: NCI/ADR-RES ovarian
OVCAR-3 ovarian = test system: OVCAR-3 ovarian
OVCAR-4 ovarian = test system: OVCAR-4 ovarian
OVCAR-5 ovarian = test system: OVCAR-5 ovarian
OVCAR-8 ovarian = test system: OVCAR-8 ovarian
PC-3 prostate = test system: PC-3 prostate
RPMI-8226 leukemia = test system: RPMI-8226 leukemia
RXF 393 renal = test system: RXF 393 renal
SF-268 CNS = test system: SF-268 CNS
SF-295 CNS = test system: SF-295 CNS
SF-539 CNS = test system: SF-539 CNS
SK-MEL-2 melanoma = test system: SK-MEL-2 melanoma
SK-MEL-5 melanoma = test system: SK-MEL-5 melanoma
SK-OV-3 ovarian = test system: SK-OV-3 ovarian
SN12C renal = test system: SN12C renal
SNB-19 CNS = test system: SNB-19 CNS
SNB-75 CNS = test system: SNB-75 CNS
SR leukemia = test system: SR leukemia
SW-620 colon = test system: SW-620 colon
T-47D breast = test system: T-47D breast
TK-10 renal = test system: TK-10 renal
U251 CNS = test system: U251 CNS
UACC-257 melanoma = test system: UACC-257 melanoma
UACC-62 melanoma = test system: UACC-62 melanoma
UO-31 renal = test system: UO-31 renal

`CCCCCCCCn1ccc2cc(NC(=O)Cn3cc(CN4CCN(CC)CC4)nn3)ccc21` gave a GI50 (786-0 renal) of 1.61 µM, a TGI (786-0 renal) of 3.11 µM and a GI50 (A498 renal) of 2.07 µM. The TGI (A498 renal) was 4.97 µM, the GI50 (A549 NSCLC) was 1.99 µM and the TGI (A549 NSCLC) was 4.1 µM. For the same compound, the GI50 (ACHN renal) was 1.82 µM, the TGI (ACHN renal) was 3.47 µM and the GI50 (BT-549 breast) was 1.76 µM. It also gave a TGI (BT-549 breast) of 4.19 µM, a GI50 (CAKI-1 renal) of 1.8 µM and a TGI (CAKI-1 renal) of 3.43 µM. It also gave a GI50 (CCRF-CEM leukemia) of 3.06 µM, a TGI (CCRF-CEM leukemia) of 10.3 µM and a GI50 (COLO 205 colon) of 1.8 µM. It also gave a TGI (COLO 205 colon) of 3.47 µM, a GI50 (DU-145 prostate) of 3.4 µM and a TGI (DU-145 prostate) of 11.4 µM. It also gave a GI50 (EKVX NSCLC) of 1.81 µM, a TGI (EKVX NSCLC) of 4.65 µM and a GI50 (HCC-2998 colon) of 1.84 µM. It also gave a TGI (HCC-2998 colon) of 3.43 µM, a GI50 (HCT-116 colon) of 1.7 µM and a TGI (HCT-116 colon) of 3.51 µM. For the same compound, the GI50 (HCT-15 colon) was 1.78 µM, the TGI (HCT-15 colon) was 3.79 µM and the GI50 (HL-60(TB) leukemia) was 1.97 µM. It also gave a TGI (HL-60(TB) leukemia) of 4.14 µM, a GI50 (HOP-62 NSCLC) of 1.7 µM and a TGI (HOP-62 NSCLC) of 3.33 µM. It also gave a GI50 (HOP-92 NSCLC) of 1.36 µM, a TGI (HOP-92 NSCLC) of 2.9 µM and a GI50 (HS 578T breast) of 2.14 µM. For the same compound, the TGI (HS 578T breast) was 5.54 µM, the GI50 (HT29 colon) was 2 µM and the TGI (HT29 colon) was 4.39 µM. For the same compound, the GI50 (IGROV1 ovarian) was 2.17 µM, the TGI (IGROV1 ovarian) was 5.98 µM and the GI50 (K-562 leukemia) was 2.05 µM. The TGI (K-562 leukemia) was 4.34 µM, the GI50 (KM12 colon) was 2.08 µM and the TGI (KM12 colon) was 4.74 µM. The GI50 (LOX IMVI melanoma) was 1.72 µM, the TGI (LOX IMVI melanoma) was 3.2 µM and the GI50 (M14 melanoma) was 1.9 µM. The TGI (M14 melanoma) was 3.67 µM, the GI50 (MALME-3M melanoma) was 1.68 µM and the TGI (MALME-3M melanoma) was 3.17 µM. The GI50 (MCF7 breast) was 1.82 µM, the TGI (MCF7 breast) was 3.73 µM and the GI50 (MDA-MB-231 breast) was 1.75 µM. It also gave a TGI (MDA-MB-231 breast) of 3.38 µM, a GI50 (MDA-MB-435) of 1.78 µM and a TGI (MDA-MB-435) of 3.32 µM. It also gave a GI50 (MOLT-4 leukemia) of 2.58 µM, a TGI (MOLT-4 leukemia) of 6.68 µM and a GI50 (NCI-H226 lung) of 1.59 µM. It also gave a TGI (NCI-H226 lung) of 3.1 µM, a GI50 (NCI-H23 lung) of 1.96 µM and a TGI (NCI-H23 lung) of 4.14 µM. For the same compound, the GI50 (NCI-H460 lung) was 1.94 µM, the TGI (NCI-H460 lung) was 3.68 µM and the GI50 (NCI-H522 lung) was 1.89 µM. For the same compound, the TGI (NCI-H522 lung) was 3.84 µM, the GI50 (NCI/ADR-RES ovarian) was 12.2 µM and the TGI (NCI/ADR-RES ovarian) was 27.7 µM. For the same compound, the GI50 (OVCAR-3 ovarian) was 2.7 µM, the TGI (OVCAR-3 ovarian) was 8.25 µM and the GI50 (OVCAR-4 ovarian) was 6.46 µM. The TGI (OVCAR-4 ovarian) was 19.2 µM, the GI50 (OVCAR-5 ovarian) was 2.36 µM and the TGI (OVCAR-5 ovarian) was 6.39 µM. It also gave a GI50 (OVCAR-8 ovarian) of 2.33 µM, a TGI (OVCAR-8 ovarian) of 5.83 µM and a GI50 (PC-3 prostate) of 2.06 µM. It also gave a TGI (PC-3 prostate) of 5.03 µM, a GI50 (RPMI-8226 leukemia) of 2.28 µM and a TGI (RPMI-8226 leukemia) of 5.39 µM. It also gave a GI50 (RXF 393 renal) of 1.48 µM, a TGI (RXF 393 renal) of 3.04 µM and a GI50 (SF-268 CNS) of 1.9 µM. For the same compound, the TGI (SF-268 CNS) was 4.01 µM, the GI50 (SF-295 CNS) was 1.87 µM and the TGI (SF-295 CNS) was 3.7 µM. The GI50 (SF-539 CNS) was 1.68 µM, the TGI (SF-539 CNS) was 3.17 µM and the GI50 (SK-MEL-2 melanoma) was 2.01 µM. The TGI (SK-MEL-2 melanoma) was 3.89 µM, the GI50 (SK-MEL-5 melanoma) was 1.75 µM and the TGI (SK-MEL-5 melanoma) was 3.14 µM. The GI50 (SK-OV-3 ovarian) was 1.78 µM, the TGI (SK-OV-3 ovarian) was 3.49 µM and the GI50 (SN12C renal) was 1.82 µM. The TGI (SN12C renal) was 3.76 µM, the GI50 (SNB-19 CNS) was 1.9 µM and the TGI (SNB-19 CNS) was 3.77 µM. The GI50 (SNB-75 CNS) was 1.52 µM, the TGI (SNB-75 CNS) was 2.98 µM and the GI50 (SR leukemia) was 3.35 µM. For the same compound, the TGI (SR leukemia) was 11.8 µM, the GI50 (SW-620 colon) was 1.9 µM and the TGI (SW-620 colon) was 3.62 µM. The GI50 (T-47D breast) was 1.81 µM, the TGI (T-47D breast) was 3.56 µM and the GI50 (TK-10 renal) was 1.77 µM. The TGI (TK-10 renal) was 3.36 µM, the GI50 (U251 CNS) was 1.77 µM and the TGI (U251 CNS) was 3.26 µM. It also gave a GI50 (UACC-257 melanoma) of 1.83 µM, a TGI (UACC-257 melanoma) of 3.65 µM and a GI50 (UACC-62 melanoma) of 1.91 µM. It also gave a TGI (UACC-62 melanoma) of 3.5 µM, a GI50 (UO-31 renal) of 1.46 µM and a TGI (UO-31 renal) of 2.79 µM.
